According to PubChem BioAssay (NCI):
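Following 48 hours of exposure in 96-well plates, responses at five concentrations were used to interpolate endpoints linearly. TGI denotes the concentration required for complete inhibition of growth.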

Tests used:
Test in all cases: NCI-60 cell line screen, 48 h
[1] = test system: 786-0 renal
[2] = test system: A498 renal
[3] = test system: A549 NSCLC
[4] = test system: ACHN renal
[5] = test system: BT-549 breast
[6] = test system: CAKI-1 renal
[7] = test system: CCRF-CEM leukemia
[8] = test system: COLO 205 colon
[9] = test system: DU-145 prostate
[10] = test system: EKVX NSCLC
[11] = test system: HCC-2998 colon
[12] = test system: HCT-116 colon
[13] = test system: HCT-15 colon
[14] = test system: HOP-62 NSCLC
[15] = test system: HS 578T breast
[16] = test system: HT29 colon
[17] = test system: IGROV1 ovarian
[18] = test system: K-562 leukemia
[19] = test system: KM12 colon
[20] = test system: M14 melanoma
[21] = test system: MALME-3M melanoma
[22] = test system: MCF7 breast
[23] = test system: MDA-MB-231 breast
[24] = test system: MDA-MB-435
[25] = test system: MDA-N
[26] = test system: MOLT-4 leukemia
[27] = test system: NCI-H226 lung
[28] = test system: NCI-H23 lung
[29] = test system: NCI-H522 lung
[30] = test system: NCI/ADR-RES ovarian
[31] = test system: OVCAR-3 ovarian
[32] = test system: OVCAR-4 ovarian
[33] = test system: OVCAR-5 ovarian
[34] = test system: OVCAR-8 ovarian
[35] = test system: PC-3 prostate
[36] = test system: RPMI-8226 leukemia
[37] = test system: RXF 393 renal
[38] = test system: SF-268 CNS
[39] = test system: SF-295 CNS
[40] = test system: SK-MEL-2 melanoma
[41] = test system: SK-MEL-28 melanoma
[42] = test system: SK-MEL-5 melanoma
[43] = test system: SK-OV-3 ovarian
[44] = test system: SN12C renal
[45] = test system: SNB-19 CNS
[46] = test system: SNB-75 CNS
[47] = test system: SW-620 colon
[48] = test system: T-47D breast
[49] = test system: TK-10 renal
[50] = test system: U251 CNS
[51] = test system: UACC-257 melanoma
[52] = test system: UACC-62 melanoma
[53] = test system: UO-31 renal

Structure (SMILES): CN(C)C(=C1c2cc([N+](=O)[O-])ccc2-c2ccc([N+](=O)[O-])cc21)N(C)C
- TGI [1]: > 100 µM
- TGI [2]: > 100 µM
- TGI [3]: > 100 µM
- TGI [4]: > 100 µM
- TGI [5]: > 100 µM
- TGI [6]: > 100 µM
- TGI [7]: > 100 µM
- TGI [8]: > 100 µM
- TGI [9]: > 100 µM
- TGI [10]: > 100 µM
- TGI [11]: > 100 µM
- TGI [12]: > 100 µM
- TGI [13]: > 100 µM
- TGI [14]: > 100 µM
- TGI [15]: > 100 µM
- TGI [16]: > 100 µM
- TGI [17]: > 100 µM
- TGI [18]: > 100 µM
- TGI [19]: > 100 µM
- TGI [20]: > 100 µM
- TGI [21]: > 100 µM
- TGI [22]: > 100 µM
- TGI [23]: > 100 µM
- TGI [24]: > 100 µM
- TGI [25]: > 100 µM
- TGI [26]: > 100 µM
- TGI [27]: > 100 µM
- TGI [28]: > 100 µM
- TGI [29]: > 100 µM
- TGI [30]: > 100 µM
- TGI [31]: > 100 µM
- TGI [32]: > 100 µM
- TGI [33]: > 100 µM
- TGI [34]: > 100 µM
- TGI [35]: > 100 µM
- TGI [36]: 25.3 µM
- TGI [37]: > 100 µM
- TGI [38]: > 100 µM
- TGI [39]: > 100 µM
- TGI [40]: > 100 µM
- TGI [41]: > 100 µM
- TGI [42]: > 100 µM
- TGI [43]: > 100 µM
- TGI [44]: > 100 µM
- TGI [45]: > 100 µM
- TGI [46]: > 100 µM
- TGI [47]: > 100 µM
- TGI [48]: > 100 µM
- TGI [49]: > 100 µM
- TGI [50]: > 100 µM
- TGI [51]: > 100 µM
- TGI [52]: > 100 µM
- TGI [53]: > 100 µM
